Results: patent publication US11312719B2, “9-substituted amino triazolo quinazoline derivatives as adenosine receptor antagonists, pharmaceutical compositions and their use” (Merck Sharp & Dohme Corp., priority 2018, dated 2022)
pIC50: −log10 of the molar value.

How the values were obtained:
[1] = target: human A2a adenosine receptor (Homo sapiens (Human), UniProt P29274); assay: A2a receptor affinity radioligand binding assay ([3H] SCH58261); conditions: membranes from HEK293 or CHO cells expressing human A2a receptor
Chain of human A2a adenosine receptor (P29274 whole entry): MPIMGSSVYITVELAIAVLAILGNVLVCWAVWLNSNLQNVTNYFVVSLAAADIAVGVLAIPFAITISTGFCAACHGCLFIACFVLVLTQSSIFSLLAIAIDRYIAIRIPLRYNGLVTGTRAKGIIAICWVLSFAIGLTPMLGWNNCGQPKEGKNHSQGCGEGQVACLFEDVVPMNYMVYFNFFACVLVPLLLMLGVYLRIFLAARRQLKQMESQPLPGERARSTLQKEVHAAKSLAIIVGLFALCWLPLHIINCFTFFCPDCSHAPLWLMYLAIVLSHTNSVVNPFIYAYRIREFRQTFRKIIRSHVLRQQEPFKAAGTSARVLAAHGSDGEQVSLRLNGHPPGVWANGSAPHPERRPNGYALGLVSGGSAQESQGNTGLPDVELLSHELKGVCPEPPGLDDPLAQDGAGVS
Procedure, shortened: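 IC50 values come from 4-parameter logistic fits of filter-bound radioactivity, normalized to total (1% DMSO) and nonspecific (1 μM ZM241385) binding. Recombinant human A2a membranes (HEK293 or CHO) were exposed to compound for 15–30 min, then to [3H]SCH58261 (4 nM working dilution) for 60 min at room temperature in Tris pH 7.4/MgCl2/Tween20 buffer.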

[2] = target: human A2b adenosine receptor (Homo sapiens (Human), UniProt P29275); assay: A2b radioligand filtration binding assay; conditions: membranes from HEK293 cells expressing human A2b receptor
Chain of human A2b adenosine receptor (P29275 whole entry): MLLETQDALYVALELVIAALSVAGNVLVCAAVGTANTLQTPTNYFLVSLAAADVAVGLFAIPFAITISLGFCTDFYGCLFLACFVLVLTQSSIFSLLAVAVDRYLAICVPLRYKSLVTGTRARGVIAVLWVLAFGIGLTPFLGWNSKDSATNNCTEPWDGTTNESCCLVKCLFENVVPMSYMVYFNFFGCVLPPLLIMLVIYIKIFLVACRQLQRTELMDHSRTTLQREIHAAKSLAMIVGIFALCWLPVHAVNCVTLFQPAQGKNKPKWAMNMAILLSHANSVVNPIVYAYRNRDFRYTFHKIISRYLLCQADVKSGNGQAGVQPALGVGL
Procedure, shortened: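 Displacement of a tritiated A2b antagonist (working solution 14 nM) from human A2b receptor membranes of recombinant HEK293 cells, in Mg/Ca-free PBS pH 7.4, 60 min at room temperature after 15 to 30 min compound preincubation. Filtered, counted; normalized to total and 20 μM NECA non-specific binding; IC50 from logistic fit.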

| pIC50 [1] | pIC50 [2] | Structure (SMILES) |
| --- | --- | --- |
| 8.43 | 6.98 | COc1cc2nc(N)n3nc([C@@H]4CCCN(c5cnn(CC(C)(C)O)c5)C4)nc3c2cc1F [Example 7, (R)-1-(4-(3-(5-amino-9-fluoro-8-methoxy-[1,2,4]triazolo[1,5-c]quinazolin-2-yl)piperidin-l-yl)-1H-pyrazol-1-yl)-2-methylpropan-2-ol] |
| 8.35 | 6.83 | COc1cc2nc(N)n3nc([C@@H]4CCCN(c5cnn(CC(C)(C)O)c5C)C4)nc3c2cc1F [Example 8, (R)-1-(4-(3-(5-amino-9-fluoro-8-methoxy-[1,2,4]triazolo [1,5-c]quinazolin-2-yl)piperidin-l-yl)-5-methyl-1H-pyrazol-1-yl)-2-methylpropan-2-ol] |
| 9.30 | 6.87 | COc1cc2nc(N)n3nc([C@@H]4CCCN(c5cn(CC(C)(C)O)nc5C)C4)nc3c2cc1F [Example 9, (R)-1-(4-(3-(5-amino-9-fluoro-8-methoxy-[1,2,4]triazolo [1,5-c]quinazolin-2-yl)piperidin-1-yl)-3-methyl-1H-pyrazol-1-yl)-2-methylpropan-2-ol] |
| 8.46 | 7.20 | COc1cc2nc(N)n3nc([C@@H]4CCCN(c5cnn(CC6(O)CCC6)c5)C4)nc3c2cc1F [Example 10, (R)-1-((4-(3-(5-amino-9-fluoro-8-methoxy-[1,2,4]triazolo [1,5-c]quinazolin-2-yl)piperidin-1-yl)-1H-pyrazol-1-yl)methyl)cyclobutan-1-ol] |
| 9.30 | 7.25 | COc1cc2nc(N)n3nc([C@@H]4CCCN(c5cn(C(C)(C)CO)nc5C)C4)nc3c2cc1F [Example 11, (R)-2-(4-(3-(5-amino-9-fluoro-8-methoxy-[1,2,4]triazolo[1,5-c]quinazolin-2-yl)piperidin-1-yl)-3-methyl-1H-pyrazol-1-yl)-2-methylpropan-1-ol] |
| 8.52 | 6.65 | COc1cc2nc(N)n3nc([C@@H]4CCCN(c5cnn([C@H]6C[C@@](C)(O)C6)c5)C4)nc3c2cc1F [Example 14, (1s,3s)-3-(4-((R)-3-(5-amino-9-fluoro-8-methoxy-[1,2,4]triazolo[1,5-c]quinazolin-2-yl)piperidin-l-yl)-1H-pyrazol-1-yl)-methylcyclobutan-1-ol] |
| 7.42 | 6.04 | COc1cc2nc(N)n3nc([C@@H]4CCCN(c5cnn(CC6(C)COC6)c5)C4)nc3c2cc1F [Example 15, (R)-9-fluoro-8-methoxy-2-(1-(1-((3-methyloxetan-3-yl)methyl)-1H-pyrazol-4-yl)piperidin-3-yl)[1,2,4] triazolo[1,5-c]quinazolin-5-amine] |
| 9.10 | 6.37 | COc1cc2nc(N)n3nc([C@@H]4CCCN(c5cnn(C6CCOCC6)c5C)C4)nc3c2cc1F [Example 16, (R)-9-fluoro-8-methoxy-2-(1-(5-methyl-1-(tetrahydro-2H-pyran-4-yl)-1H-pyrazol-4-yl)piperidin-3-yl)-[1,2,4]triazolo[1,5-c]quinazoliu-5-amine] |
| 8.77 | 6.36 | COc1cc2nc(N)n3nc([C@@H]4CCCN(c5cn(C6CCOCC6)nc5C)C4)nc3c2cc1F [Example 17, (R)-9-fluoro-8-methoxy-2-(1-(3-methyl-1-(tetrahydro-2H-pyran-4-yl)-1H-pyrazol-4-yl)piperidin-3-yl) [1,2,4]triazolo[1,5-c]quinazolin-5-amine] |
| 9.15 | 7.87 | COc1cc2nc(N)n3nc([C@@H]4CCCN(c5cnn(C6CCOCC6)c5C(F)F)C4)nc3c2cc1F [Example 18, (R)-2-(1-(5-(difluoromethyl)-1-(tettahydro-2H-pyran-4-yl)-1H-pyrazol-4-yl)piperidin-3-yl)-9-fluoro-8-methoxy-[1,2,4]triazolo[1,5-c]quinazolin-5-amine] |
| 9.15 | 7.06 | COc1cc2nc(N)n3nc([C@@H]4CCCN(c5cn(C6CCOCC6)nc5C(F)F)C4)nc3c2cc1F [Example 19, (R)-2-(1-(3-(difluoromethyl)-1-(tetrahydro-2H-pyran-4-yl)-1H-pyrazol-4-yl)piperidin-3-yl)-9-fluoro-8-methoxy-[1,2,4]triazolo[1,5-c]quinazolin-5-amine] |
| 8.24 | 6.79 | CCn1cc(N2CCC[C@@H](c3nc4c5cc(F)c(OC)cc5nc(N)n4n3)C2)c(CO)n1 [Example 20, (R)-(4-(3-(5-amino-9-fluoro-8-methoxy-[1,2,4]triazolo[1,5-c]quinazolin-2-yl)piperidin-1-yl)-ethyl-1H-pyrazol-3-yl)methanol] |
| 9.52 | 6.29 | COc1cc2nc(N)n3nc([C@@H]4CCCN(c5cn(CC(C)(C)O)nc5C5CC5)C4)nc3c2cc1F [Example 21, (R)-1-(4-(3-(5-amino-9-fluoro-8-methoxy-[1,2,4]triazolo[1,5-c]quinazolin-2-yl)piperidin-1-yl)-3-cyclopropyl-1H-pyrazol-1-yl)-2-methylpropan-2-ol] |
| 8.07 | 7.56 | COc1cc2nc(N)n3nc([C@@H]4CCCN(c5ccc(OC(F)F)nc5)C4)nc3c2cc1F [Example 22, (R)-2-(1-(6-(difluoromethoxy)pyridin-3-yl)piperidin-3-yl)-9-fluoro-8-methoxy[1,2,4]triazolo[1,5-c]quinazolin-5-amine] |
| 8.70 | 7.80 | COc1cc2nc(N)n3nc([C@@H]4CCCN(c5ccc(OC(C)C)nc5)C4)nc3c2cc1F [Example 23, (R)-9-fluoro-2-(1-(6-isopropoxypyridin-3-yl)piperidin-3-yl)-8-methoxy-[1,2,4]triazolo[1,5-c]quinazolin-5-amine] |
| 7.86 | 6.32 | COc1cc2nc(N)n3nc([C@@H]4CCCN(c5cnc(OC(F)F)c(C)c5)C4)nc3c2cc1F [Example 24, (R)-2-(1-(6-(difluoromethoxy)-5-methylpyridin-3-yl)piperidin-3-yl)-9-fluoro-8-methoxy-[1,2,4]triazolo[1,5-c]quinazolin-5-amine] |
| 9.22 | 7.21 | COc1cc2nc(N)n3nc([C@@H]4CCCN(c5cc(C)c(=O)n(C(F)F)c5)C4)nc3c2cc1F [Example 25, (R)-5-(3-(5-amino-9-fluoro-8-methoxy-[1,2,4]triazolo[1,5-c]quinazolin-2-yl)piperidin-1-yl)-1-(difluoromethyl)-3-methylpyridin-2(1H)-one] |
| 8.41 | 7.31 | COc1ccc(N2CCC[C@@H](c3nc4c5cc(F)c(OC)cc5nc(N)n4n3)C2)cn1 [Example 26, (R)-9-fluoro-8-methoxy-2-(1-(6-methoxypyridin-3-yl)piperidin-3-yl)-[1,2,4]triazolo[1,5-c]quinazolin-5-amine] |
| 8.74 | 6.07 | COc1cc2nc(N)n3nc([C@@H]4CCCN(c5nc(C)n(CC(C)(C)O)n5)C4)nc3c2cc1F [Example 27, (R)-1-(3-(3-(5-amino-9-fluoro-8-methoxy-[1,2,4]triazolo[1,5-c]quinazolin-2-yl)piperidin-1-yl)-5-methyl-1H-1,2,4-triazol-1-yl)-2-methylpropan-2-ol] |
| 8.55 | 7.12 | COc1cc(F)cc2c1nc(N)n1nc([C@@H]3CCCN(c4cnn(CC(C)(C)O)c4)C3)nc21 [Example 28, (R)-1-(4-(3-(5-amino-9-fluoro-7-methoxy-[1,2,4]triazolo [1,5-c]quinazolin-2-yl)piperidin-1-yl)-1H-pyrazol-1-yl)-2-methylpropan-2-ol] |
| 8.82 | 6.52 | COc1cc(F)cc2c1nc(N)n1nc([C@@H]3CCCN(c4cnn(CC(C)(C)O)c4C)C3)nc21 [Example 29, (R)-1-(4-(3-(5-amino-9-fluoro-7-methoxy-[1,2,4]triazolo [1,5-c]quinazolin-2-yl)piperidin-1-yl)-5-methyl-1H-pyrazol-1-yl)-2-methylpropan-2-ol] |
| 9.40 | 7.01 | COc1cc(F)cc2c1nc(N)n1nc([C@@H]3CCCN(c4cn(CC(C)(C)O)nc4C)C3)nc21 [Example 30, (R)-1-(4-(3-(5-amino-9-fluoro-7-methoxy-[1,2,4]triazolo [1,5-c]quinazolin-2-yl)piperidin-l-yl)-3-methyl-1H-pyrazol-1-yl)-2-methylpropan-2-ol] |
| 8.77 | 7.02 | COc1cc(F)cc2c1nc(N)n1nc([C@@H]3CCCN(c4cnn(CC5(O)CCC5)c4)C3)nc21 [Example 31, (R)-1-((4-(3-(5-amino-9-fluoro-7-methoxy-[1,2,4]triazolo [1,5-c]quinazolin-2-yl)piperidin-l-yl)-1H-pyrazol-1-yl)methyl)cyclobutan-1-ol] |
| 9.30 | 8.16 | COc1cc(F)cc2c1nc(N)n1nc([C@@H]3CCCN(c4cnn(C(C)(C)CO)c4)C3)nc21 [Example 32, (R)-2-(4-(3-(5-amino-9-fluoro-7-methoxy-[1,2,4]triazolo[1,5-c]quinazolin-2-yl)piperidin-1-yl)-1H-pyrazol-1-yl)-2-methylpropan-1-ol] |
| 8.44 | 7.76 | COc1cc(F)cc2c1nc(N)n1nc([C@@H]3CCCN(c4ccc(OC(F)F)nc4)C3)nc21 [Example 33, (R)-2-(1-(6-(difluoromethoxy)pyridin-3-yl)piperidin-3-yl)-9-fluoro-7-methoxy-[1,2,4]triazolo[1,5-c]quinazolin-5-amine] |
| 8.85 | 7.53 | COc1ccc(N2CCC[C@@H](c3nc4c5cc(F)cc(OC)c5nc(N)n4n3)C2)cn1 [Example 34, (R)-9-fluoro-7-methoxy-2-(1-(6-methoxypyridin-3-yl)piperidin-3-yl)-[1,2,4]triazolo[1,5-c]quinazolin-5-amine] |
